Assay [1] relates to U266, RPMI, and MM1S cells. The assay is described as follows: Apoptosis (annexin) and necrosis (propidium iodide) by HDAC inhibitors, FIG. 15. The format is cell-based, human. The procedure: Apoptosis was measured by annexin staining while cell necrosis was measured by propidium iodide staining.
CD44 surface expression was analyzed by staining cells with CD44-FITC antibody (BD Biosciences) for 30 min. in the dark, at room temperature. Apoptosis was measured by Annexin V-FITC and Propidium Iodide (PI) (Clontech) staining for 15 min. in the dark, at room temperature and data immediately acquired on a Beckman Coulter FC500 (Beckman Coulter) machine. Analysis was conducted using the FlowJo Software vX.0.7 (Tree Star Inc.). For the multiparametric analysis, the bone marrow samples were stained with CD38-PE (347687; BD Bioscience), CD138-APC (347193; BD Bioscience), CD45-ECD (A07784; Beckman Coulter), CD44-FITC (BD Bioscience) and AnnexinV-FITC (Clontech) for 30 minutes, washed with PBS and immediately analyzed with Gallios cytometer (Beckman Coulter).

For another assay, the system named is MM cells. The assay is described as follows: IC50 concentrations of HDAC inhibitors in MM cells. The format is cell-based. The note with it: Homo sapiens.
Another assay concerns MM.1S GFP/Luc+ cells. Kind of assay: NOD-SCID mice engrafted i.v. with MM.1S GFP/Luc+ cells, oral AR-42 + pomalidomide. The assay is classed as in vivo. The note with it: 25 mg/kg each. From the text: To investigate whether the oral combination treatment of AR-42 and pomalidomide improves the survival of mice engrafted with MM cells, 40 NOD-SCID mice were engrafted with 10×10^6 MM.1S GFP/Luc+ cells by intravenous injection (IV). Ten days later, mice with the same tumor burden (as calculated by luminescence) (FIG. 14C) were randomly divided into 4 treatment groups (10 mice per group): AR-42 alone, pomalidomide alone, AR-42+pomalidomide, and vehicle control (Ctrl, 8% DMSO in PBS). Mice were treated by oral administration (gavage) daily with pomalidomide (25 mg/kg) or Ctrl, and three times a week (Mon-Tues-Fri) with AR-42 (25 mg/kg) or Ctrl, until elimination criteria, including paralysis, extreme weight loss and dehydration, were reached.

What is called IC50 is the concentration that gives 50% inhibition. Read a low IC50 as greater potency in that assay. As to `Cc1[nH]c2ccccc2c1CCNCc1ccc(/C=C/C(=O)NO)cc1` [LBH, reference compound], the dose response curve entry in assay [1] (data not shown) was “No dose response curve could be obtained”. For the same compound, the IC50 with MM cells stood at 10 nM.

`O=C(CCCCCCC(=O)Nc1ccccc1)NO` [SAHA, suberoylanilide hydroxamic acid, reference compound]: in assay [1] (24 and 48 hours, 0.25, 0.5, and 1 μM), the “apoptosis (annexin staining)” value is reported as “limited impact on apoptosis”.

Turning to `Nc1cccc2c1C(=O)N(C1CCC(=O)NC1=O)C2=O` (stereo not shown) [pomalidomide, reference compound], in the assay on MM.1S GFP/Luc+ cells, the median survival was determined as 42 days.

The values above are taken from patent US10022342B2, “Methods and compositions for treating multiple myeloma” (Ohio State Innovation Foundation, priority 2015, dated 2018).
